Measurements taken from patent US10398659B2, “Adjuvant chemotherapy for anaplastic gliomas” (OKLAHOMA MEDICAL RESEARCH FOUNDATION, priority 2008, dated 2019).
Where a name gives a salt, the structure may show the parent alone.

Experiments:
VEGF = VEGF protein expression in C6 cells; format: cell-based, rat; conditions: 5 mM
From the text: (§1) The inventors then examined iNOS and VEGF protein expressions in the 2,4-ds-PBN treated C6 cells.

solubility in water = format: physicochemical; conditions: free acid
From the text: The product so formed is the free acid and is characterized by a molecular weight of […]. It is a white powdery material which decomposes upon heating. […]; 8.836 ppm (d, 8.4 Hz); 8.839 ppm (d, 1.7 Hz); 8.774 ppm (s).

[1] = test system: pro-caspase 3 and pro-caspase 9; assay: Western blots of apoptotic factors in C6 cells; format: cell-based, rat; conditions: increasing concentrations
Experimental: FIG. 6: Western blots of rat C6 cells with increasing concentrations of 2,4-ds-PBN. Increasing levels of apoptotic factors pro-caspase 3 and pro-caspase 9 are shown, relative to actin.
(§2) FIG. 4 represents a series of MR images taken over a period of 25 days for an untreated control group and representative data (best-case, average effect, and worst-case) for 2,4-ds-PBN-treated rats (via drinking water administration at a dose of 17 mg/kg/day). […] Rats treated with 2,4-ds-PBN achieved >80% survival over the 40 day study period (n=15), compared to non-treated rats (n=5). […] Gross signs of adverse effects that were monitored included weight loss, ruffling of fur, and behavioural and postural changes.

[2] = in vivo; cited from earlier work
C6 cells = assay: cell proliferation; format: cell-based, rat; conditions: concentration dependence
C6 glioma = assay: intracerebral C6 rat glioma cell implantation model, MR imaging; format: in vivo
Experimental: The inventors used an intracerebral C6 rat glioma cell implantation method, widely accepted by the glioma research field, as a good model for gliomas. To induce glioma in rats, C6 rat glioma cells (10^6 cells in 10 μL were injected into the cerebral cortex of male Fischer 344 rats. Fifteen days later, 2,4-ds-PBN was orally administered through drinking water (0.015%, 17.5 mg/kg). The efficacy of 2,4-ds-PBN was assessed with the tumor growth patterns and growth rates by using magnetic resonance (MR) imaging (T1/T2-weighted imaging) methods over the course of a month.
as §2

iNOS = iNOS protein expression in C6 cells; format: cell-based, rat; conditions: 100 μM
From the text: as §1

[3] = monitoring of adverse effects and toxicity in treated glioma rats; format: in vivo
From the text: . n=15 for 2,4-ds-PBN-treated rats, and n=5 for non-treated rats) in 2,4-ds-PBN-treated rats (see FIG. 5). Rats treated with 2,4-ds-PBN achieved >80% survival over the 40 day study period (n=15), compared to non-treated rats (n=5). […] Gross signs of adverse effects that were monitored included weight loss, ruffling of fur, and behavioural and postural changes.

[4] = rats; cited from earlier work
C6 gliomas = conditions: cited from earlier work

Compound: CC(C)(C)[N+]([O-])=Cc1ccc(S(=O)(=O)O)cc1S(=O)(=O)O [2,4-ds-PBN, 2,4-disulfonyl phenyl tert-butyl nitrone]
- VEGF expression reduction (VEGF): 50%
- solubility (solubility in water): > 1000 mg/mL
- apoptotic effect (pro-caspase 3, pro-caspase 9 levels relative to actin) [1]: pro-apoptotic as concentration increases
- blood-brain-barrier penetration [2]: cannot easily pass through the BBB
- inhibition of cell proliferation (C6 cells): little effect
- C6 glioma tumor volumes decrease (C6 glioma; 17 mg/kg/day via drinking water from day 15 after cell implantation, vs non-treated rats, n=15 vs n=5): > 15 fold
- survival over the 40 day study period (C6 glioma; 2,4-ds-PBN in drinking water, n=15, compared to non-treated rats (n=5)): > 80%
- iNOS expression decrease (iNOS): approximately 75%
- toxicity effects ([3]; rat, in vivo): No toxicity effects were detected
- side effects during the treatment period ([3]; weight loss, ruffling of fur, behavioural and postural changes monitored): No side effects were observed

Compound: O=NN(CCCl)C(=O)NC1CCCCC1 [Lomustine, 1-(2-chloroethyl)-3-cyclohexyl-1-nitrosourea]
- blood-brain-barrier penetration [2]: crosses the blood brain barrier

Compound: CC(C)(C)[N+]([O-])=Cc1ccccc1 [PBN, phenyl N-tert-butyl nitrone]
- half-life [4]: about 132 minutes
- blood-brain-barrier penetration [2]: easily penetrate the BBB
- inhibition of cell proliferation (C6 cells): significantly inhibited cell proliferation in a concentration dependent manner
- effect on tumor growth, pretreatment (C6 gliomas; PBN administration as a pretreatment, rat C6 glioma): decrease in growth rate and tumor regression
- effect on tumor regression, post-treatment (C6 gliomas; post-treatment of PBN, compared with pre-treatment): little effect for tumor regression
- iNOS expression decrease (iNOS): 5%

Compound: CC(C)(C)/[N+]([O-])=C/c1ccccc1S(=O)(=O)O [S-PBN]
- inhibition of cell proliferation (C6 cells): little effect

Compound: CC[C@]1(O)C[C@H]2CN(CCc3c([nH]c4ccccc34)[C@@](C(=O)OC)(c3cc4c(cc3OC)N(C=O)[C@H]3[C@@](O)(C(=O)OC)[C@H](OC(C)=O)[C@]5(CC)C=CCN6CC[C@]43[C@@H]65)C2)C1 [Vincristine, vincaleukoblastine, a 22-oxo-, sulfate (1:1) (salt)]
- blood-brain-barrier penetration [2]: does not appear to cross the blood brain barrier
